According to PubChem BioAssay (NCI):
“And” between values parts separate entries of the source, which are not always exact repeats. Identical values can stand only once.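 These data come from cells grown in 96-well plates and exposed to compound for 48 hours at five concentrations. The concentration for 50% growth inhibition is given as GI50. TGI marks complete inhibition of growth.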

Legend:
Experiment in all cases: growth of human tumour cells (NCI), 48 h
[1] = test system: OVCAR-5 ovarian
[2] = test system: IGROV1 ovarian
[3] = test system: HOP-62 NSCLC
[4] = test system: OVCAR-3 ovarian
[5] = test system: COLO 205 colon
[6] = test system: SF-295 CNS
[7] = test system: OVCAR-8 ovarian
[8] = test system: HCT-116 colon
[9] = test system: UO-31 renal
[10] = test system: BT-549 breast

Structure (SMILES) | GI50 [1] | TGI [1] | GI50 [2] [µM] | TGI [2] | GI50 [3] | TGI [3] | GI50 [4] | TGI [4] | GI50 [5] [µM] | TGI [5] | GI50 [6] | TGI [6] | GI50 [7] | TGI [7] | GI50 [8] [µM] | TGI [8] | GI50 [9] | TGI [9] | GI50 [10] [µM] | TGI [10]
CC(C)[C@H](O)C(=O)N[C@@H](C)C(=O)N[C@@H]1C(=O)N(C)CCc2ccccc21 | > 100 µM | > 100 µM | > 100 | > 100 µM | > 100 µM | > 100 µM | > 100 µM | > 100 µM | > 100 | > 100 µM | > 100 µM | > 100 µM | > 100 µM | > 100 µM | > 100 | > 100 µM | > 100 µM | > 100 µM | > 100 | > 100 µM
CC(C)CC(C/C=C1/CC(CO)(COC(=O)C(C)(C)C)OC1=O)CC(C)C (stereo not drawn) |  | 24.5 µM |  | 30.6 µM and 24.4 µM | 10.8 µM and 1.92 µM | 31.7 µM and 20.1 µM | 14.9 µM and 5.32 µM | 36.6 µM and 18.8 µM |  | 0.958 µM | 12.2 µM and 1.7 µM | 36.7 µM and 12.7 µM |  | 32.9 µM and 38.7 µM |  | 29.5 µM and 30.9 µM | 10.8 µM and 3.51 µM | 23 µM and 17.1 µM |  | 24.6 µM and 31 µM
CCC(C)(O)c1cnc(CC(C)C)c(=O)n1O (stereo not drawn) |  | 25.8 µM |  | > 100 µM |  | > 100 µM |  | 81.6 µM |  | > 100 µM |  | > 100 µM |  | > 100 µM |  | > 100 µM |  | > 100 µM |  | > 100 µM
NNCCc1ccc(NC(=O)CCCc2ccc(C(=O)Nc3ccccc3N)cc2)cc1 | 8.15 µM | > 100 µM | 31 | > 100 µM | 10.8 µM | > 100 µM | 9.42 µM | > 100 µM | 8.48 | 40.7 µM | 13.3 µM | > 100 µM | 8.52 µM | > 100 µM | 2.75 | > 100 µM | 4.8 µM | 53.6 µM | 9.5 | > 100 µM
OC(c1cc(-c2ccc(C(F)(F)F)cc2)nc(C(F)(F)F)c1)C1CCCCN1 (stereo not drawn) | 1.53 µM and 2.71 µM | 2.87 µM and 7.52 µM | 2.02 | 3.1 µM and 4.89 µM | 1.75 µM and 2.13 µM | 3.18 µM and 4.75 µM | 1.85 µM and 2.69 µM | 3.28 µM and 6.76 µM |  | 3.42 µM and 3.15 µM | 1.38 µM and 2.84 µM | 2.7 µM and 6.54 µM | 1.87 µM and 2.2 µM | 3.62 µM and 4.59 µM | 1.53 | 2.87 µM and 3.47 µM | 1.44 µM and 4.96 µM | 2.85 µM and 18.3 µM | 1.7 | 3.08 µM
CCCCCCCCCCNC(=O)CI | 3.39 µM | 10.4 µM | 0.12 | 0.288 µM | 1.95 µM | 4.04 µM | 1.87 µM | 3.44 µM | 2.38 | 6.01 µM | 4.58 µM | 13.2 µM | 1.55 µM | 4.52 µM | 1.65 | 3.07 µM | 1.58 µM | 3.04 µM | 1.73 | 3.35 µM
CCCc1cc(=O)n2c(C(=O)Nc3ccc(Cl)cc3C)c(C(=O)Nc3ccc(F)cc3)sc2n1 | 53.9 µM | > 150 µM | 9.31 | 33.6 µM | 1.54 µM | 3.95 µM | 3.35 µM | 8.33 µM | 16.9 | > 150 µM | 31.7 µM | 131 µM | 2.05 µM | 5.14 µM | 2.53 | > 150 µM | 7.35 µM | 30.4 µM | 27.7 | 61 µM
COc1ccc(-c2nc(-c3cc(OC)cc(OC)c3)[nH]c2-c2ccc(OC)cc2)cc1 | > 100 µM | > 100 µM | > 100 | > 100 µM | > 100 µM | > 100 µM | 5.95 µM | > 100 µM | 3.68 | > 100 µM | 5.51 µM | > 100 µM | 9.77 µM | > 100 µM | 8.06 | > 100 µM | 5.72 µM | > 100 µM | 8.56 | > 100 µM
CN(C)CCNCCN |  | > 100 µM |  | > 100 µM |  | > 100 µM |  | > 100 µM |  | > 100 µM |  | > 100 µM |  | > 100 µM |  | > 100 µM |  | > 100 µM |  | > 100 µM
O=C(/C=C/c1ccccc1)c1ccccc1 |  | > 10 µM |  | > 10 µM |  | > 10 µM |  | > 10 µM |  | > 10 µM |  | > 10 µM |  | > 10 µM |  | 4.55 µM |  | > 10 µM |  | > 10 µM
Cn1c(=O)c2c(nc(C(=N)SCC(=O)O)n2C)n(C)c1=O |  | > 100 µM |  | > 100 µM |  | > 100 µM |  | > 100 µM |  | 71.5 µM |  | > 100 µM |  | > 100 µM |  | > 100 µM |  | > 100 µM |  | > 100 µM
COc1ccc(-c2nccn2-c2ccc(OC)cc2)cc1 | 25 µM | > 100 µM | 25.2 | > 82 µM | 22 µM | 74.4 µM | 21.6 µM | 62.6 µM | 28.3 | > 100 µM | 21 µM | 74.2 µM | 23.9 µM | 67.5 µM | 16.4 | 44.4 µM | 23.3 µM | > 82 µM | 28.7 | > 94.5 µM
CCN(CC)CCCCCCNc1cccc2cc(Br)cnc12 | 6.25 µM | 18.9 µM | 3.25 | 10.9 µM | 10 µM | 23.4 µM | 8.63 µM | 24.8 µM | 1.87 | 3.88 µM | 2.88 µM | 10 µM | 10.1 µM | 23.9 µM | 3.39 | 14.2 µM | 3.15 µM | 15 µM | 10.1 | 22.2 µM
COC(=O)C1C(O)C(C(=O)OC)C(C)N(C)C1C (stereo not drawn) |  | > 100 µM |  | > 100 µM |  | > 100 µM |  | > 100 µM |  | > 100 µM |  | > 100 µM |  | > 100 µM |  | > 100 µM |  | > 100 µM |  | > 100 µM
O=C(NCc1ccc(Cn2c(=O)sn(-c3ccccc3)c2=O)cc1)OCc1ccc2cccc(O)c2n1 | 1.54 µM | 3.12 µM | 0.596 | 1.96 µM | 1.55 µM | 3.52 µM | 0.363 µM | 1.36 µM | 0.608 | 2.29 µM | 2.14 µM | 5.82 µM | 0.957 µM | 3 µM | 0.259 | 1.14 µM | 0.571 µM | 1.92 µM | 0.732 | 2.3 µM
